Reference: PubChem BioAssay (NCI)
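Briefly, cells in 96-well plates were exposed to five compound concentrations for 48 h, and endpoints were estimated by linear interpolation. Abbreviation: GI50, concentration required for 50% inhibition of growth. TGI: concentration producing complete growth inhibition.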

Assays:
Experiment in all cases: NCI anticancer screen, dose series, 48 h
T-47D breast = system: T-47D breast
NCI-H460 lung = system: NCI-H460 lung
SK-OV-3 ovarian = system: SK-OV-3 ovarian
SF-268 CNS = system: SF-268 CNS
HCT-116 colon = system: HCT-116 colon
HT29 colon = system: HT29 colon
LOX IMVI melanoma = system: LOX IMVI melanoma
UACC-257 melanoma = system: UACC-257 melanoma
SF-295 CNS = system: SF-295 CNS
A549 NSCLC = system: A549 NSCLC
OVCAR-4 ovarian = system: OVCAR-4 ovarian
RXF 393 renal = system: RXF 393 renal
SK-MEL-28 melanoma = system: SK-MEL-28 melanoma
SNB-19 CNS = system: SNB-19 CNS
OVCAR-3 ovarian = system: OVCAR-3 ovarian
COLO 205 colon = system: COLO 205 colon
CAKI-1 renal = system: CAKI-1 renal
MDA-MB-435 = system: MDA-MB-435
HS 578T breast = system: HS 578T breast
SNB-75 CNS = system: SNB-75 CNS
ACHN renal = system: ACHN renal
NCI-H23 lung = system: NCI-H23 lung
OVCAR-8 ovarian = system: OVCAR-8 ovarian
EKVX NSCLC = system: EKVX NSCLC
UO-31 renal = system: UO-31 renal
MALME-3M melanoma = system: MALME-3M melanoma
NCI-H226 lung = system: NCI-H226 lung
U251 CNS = system: U251 CNS
HCC-2998 colon = system: HCC-2998 colon
SK-MEL-5 melanoma = system: SK-MEL-5 melanoma
SW-620 colon = system: SW-620 colon
HL-60(TB) leukemia = system: HL-60(TB) leukemia
HOP-62 NSCLC = system: HOP-62 NSCLC
DU-145 prostate = system: DU-145 prostate
M14 melanoma = system: M14 melanoma
MDA-MB-231 breast = system: MDA-MB-231 breast
RPMI-8226 leukemia = system: RPMI-8226 leukemia
IGROV1 ovarian = system: IGROV1 ovarian
MCF7 breast = system: MCF7 breast
NCI/ADR-RES ovarian = system: NCI/ADR-RES ovarian
UACC-62 melanoma = system: UACC-62 melanoma
MOLT-4 leukemia = system: MOLT-4 leukemia
786-0 renal = system: 786-0 renal
SK-MEL-2 melanoma = system: SK-MEL-2 melanoma
SR leukemia = system: SR leukemia
K-562 leukemia = system: K-562 leukemia
SN12C renal = system: SN12C renal
HOP-92 NSCLC = system: HOP-92 NSCLC
SF-539 CNS = system: SF-539 CNS
PC-3 prostate = system: PC-3 prostate
TK-10 renal = system: TK-10 renal
A498 renal = system: A498 renal
KM12 colon = system: KM12 colon
HCT-15 colon = system: HCT-15 colon
NCI-H522 lung = system: NCI-H522 lung
OVCAR-5 ovarian = system: OVCAR-5 ovarian
CCRF-CEM leukemia = system: CCRF-CEM leukemia

O=C(CCCn1c2c(sc3ncccc32)c(=O)n2nnc(-c3ccccc3)c12)NCCc1cnc[nH]1
GI50 (T-47D breast): 1.87 µM
TGI (T-47D breast): 21.6 µM
GI50 (NCI-H460 lung): 3.66 µM
TGI (NCI-H460 lung): 13.1 µM
GI50 (SK-OV-3 ovarian): 14.3 µM
TGI (SK-OV-3 ovarian): 27.7 µM
GI50 (SF-268 CNS): 11.7 µM
TGI (SF-268 CNS): 29.1 µM
GI50 (HCT-116 colon): 0.378 µM
TGI (HCT-116 colon): 10.1 µM
GI50 (HT29 colon): 3.89 µM
TGI (HT29 colon): 54.9 µM
GI50 (LOX IMVI melanoma): 12.4 µM
TGI (LOX IMVI melanoma): 26.6 µM
GI50 (UACC-257 melanoma): 18.3 µM
TGI (UACC-257 melanoma): 35.6 µM
GI50 (SF-295 CNS): 1.75 µM
TGI (SF-295 CNS): 16.3 µM
GI50 (A549 NSCLC): 8.74 µM
TGI (A549 NSCLC): 34.7 µM
GI50 (OVCAR-4 ovarian): 15.4 µM
TGI (OVCAR-4 ovarian): 32.2 µM
GI50 (RXF 393 renal): 14.8 µM
TGI (RXF 393 renal): 34 µM
GI50 (SK-MEL-28 melanoma): 17 µM
TGI (SK-MEL-28 melanoma): 35 µM
GI50 (SNB-19 CNS): 10.8 µM
TGI (SNB-19 CNS): 33.7 µM
GI50 (OVCAR-3 ovarian): 11 µM
TGI (OVCAR-3 ovarian): 23.6 µM
GI50 (COLO 205 colon): 6.28 µM
TGI (COLO 205 colon): 23.5 µM
GI50 (CAKI-1 renal): 2.89 µM
TGI (CAKI-1 renal): 14.4 µM
GI50 (MDA-MB-435): 0.489 µM
TGI (MDA-MB-435): 20.5 µM
GI50 (HS 578T breast): 11.3 µM
TGI (HS 578T breast): 31.5 µM
GI50 (SNB-75 CNS): 15.1 µM
TGI (SNB-75 CNS): 28.9 µM
GI50 (ACHN renal): 15.3 µM
TGI (ACHN renal): 31 µM
GI50 (NCI-H23 lung): 14.5 µM
TGI (NCI-H23 lung): 32.2 µM
GI50 (OVCAR-8 ovarian): 0.0952 µM
TGI (OVCAR-8 ovarian): 17.3 µM
GI50 (EKVX NSCLC): 15.2 µM
TGI (EKVX NSCLC): 44.5 µM
GI50 (UO-31 renal): 11.9 µM
TGI (UO-31 renal): 26.7 µM
GI50 (MALME-3M melanoma): 18.1 µM
TGI (MALME-3M melanoma): 37 µM
GI50 (NCI-H226 lung): 11.7 µM
TGI (NCI-H226 lung): 29.3 µM
GI50 (U251 CNS): 1.28 µM
TGI (U251 CNS): 14.9 µM
GI50 (HCC-2998 colon): 2.03 µM
TGI (HCC-2998 colon): 29.9 µM
GI50 (SK-MEL-5 melanoma): 16.1 µM
TGI (SK-MEL-5 melanoma): > 100 µM
GI50 (SW-620 colon): 0.331 µM
TGI (SW-620 colon): 14.4 µM
GI50 (HL-60(TB) leukemia): 1.41 µM
TGI (HL-60(TB) leukemia): 4.76 µM
GI50 (HOP-62 NSCLC): 16.5 µM
TGI (HOP-62 NSCLC): 32 µM
GI50 (DU-145 prostate): 2.77 µM
TGI (DU-145 prostate): 19.7 µM
GI50 (M14 melanoma): 3.5 µM
TGI (M14 melanoma): 19.4 µM
GI50 (MDA-MB-231 breast): 17.8 µM
TGI (MDA-MB-231 breast): 34.6 µM
GI50 (RPMI-8226 leukemia): 5.15 µM
TGI (RPMI-8226 leukemia): 35.7 µM
GI50 (IGROV1 ovarian): 9.54 µM
TGI (IGROV1 ovarian): 27.6 µM
GI50 (MCF7 breast): 18 µM
TGI (MCF7 breast): > 100 µM
GI50 (NCI/ADR-RES ovarian): 34.1 µM
TGI (NCI/ADR-RES ovarian): > 100 µM
GI50 (UACC-62 melanoma): 16 µM
TGI (UACC-62 melanoma): 30.5 µM
GI50 (MOLT-4 leukemia): 2.22 µM
TGI (MOLT-4 leukemia): 24.2 µM
GI50 (786-0 renal): 12.6 µM
TGI (786-0 renal): 25.7 µM
GI50 (SK-MEL-2 melanoma): 17.6 µM
TGI (SK-MEL-2 melanoma): 38.9 µM
GI50 (SR leukemia): 2.52 µM
TGI (SR leukemia): 6.14 µM
GI50 (K-562 leukemia): 0.31 µM
TGI (K-562 leukemia): 15.6 µM
GI50 (SN12C renal): 0.331 µM
TGI (SN12C renal): 13.4 µM
GI50 (HOP-92 NSCLC): 17 µM
TGI (HOP-92 NSCLC): 39.5 µM
GI50 (SF-539 CNS): 0.316 µM
TGI (SF-539 CNS): 14.9 µM
GI50 (PC-3 prostate): 10.9 µM
TGI (PC-3 prostate): > 100 µM
GI50 (TK-10 renal): 13.6 µM
TGI (TK-10 renal): 27.9 µM
GI50 (A498 renal): 6.84 µM
TGI (A498 renal): 22.6 µM
GI50 (KM12 colon): 1.89 µM
TGI (KM12 colon): 24 µM
GI50 (HCT-15 colon): 5.8 µM
TGI (HCT-15 colon): > 100 µM
GI50 (NCI-H522 lung): 2.95 µM
TGI (NCI-H522 lung): 23 µM
GI50 (OVCAR-5 ovarian): 11.6 µM
TGI (OVCAR-5 ovarian): 32.7 µM
GI50 (CCRF-CEM leukemia): 0.222 µM
TGI (CCRF-CEM leukemia): 4.48 µM
